In patent publication US9884806B2, “Cyclic vinylogous amides as bromodomain inhibitors” (ICAHN SCHOOL OF MEDICINE AT MOUNT SINAI, priority 2013, dated 2018):

Experiments:
BRD4_2 = target: T1, BRD4_2 (Homo sapiens, UniProt O60885); assay: Fluorescence anisotropy binding assay (competition with FITC-labeled MS417 probe), BRD4_2; conditions: FITC-MS417 probe 80 nM, PBS pH 7.4, 1 hour, 25° C.
T1 construct: contains two tandem bromodomains (BrD1 and BrD2)

[1] = target: T2, first bromodomain (BrD1) of human BRD4 (Homo sapiens, UniProt O60885); assay: Fluorescence anisotropy binding assay (competition with FITC-labeled MS417 probe); conditions: FITC-MS417 probe 80 nM, PBS pH 7.4, 1 hour, 25° C., read-out: BRD4_1 IC50
T2 construct: the first bromodomain (BrD1) of human BRD4; poly-His (cleaved yes); made in house
Description: Fluorescence Anisotropy Binding Assay
Expression and purification of the first bromodomain (BrD1) of human BRD4 in poly-His tag form was performed using a procedure described in the literature [See Zeng et al. Structure 16, 643-652 (2008) and Zhang et al., J Biol Chem 287, 28840-28851 (2012).] The protein was purified by using affinity chromatography on a nickel-IDA column (Invitrogen), followed by the removal of poly-His tag by thrombin cleavage.
Binding affinity of the newly synthesized compounds to the BRD4 BrD1 was assessed in a fluorescence anisotropy assay using a fluorescein isothiocyanate (FITC)-labeled MS417 as an assay probe (Zhang et al. 2008 op.cit.). Competition binding was performed with a BrD protein (0.25 to 1 μM) and the fluorescent probe (80 nM), and increasing concentration of unlabeled competing ligand in a PBS buffer (pH 7.4) in total volume of 80 μL. Measurements were obtained after 1 hour incubation of the fluorescent ligand and the protein at 25° C. with Safire 2 microplate reader (Tecan). In the assay, fluorescent ligand concentration was ≦2Kd, and protein concentration was set at which 50-80% of fluorescent ligand is bound. Dissociation constant of a competing ligand was calculated with the correction to Cheng-Prussoff equation introduced by Nicolovska-Coleska and colleagues [Nikolovska-Coleska, Z. et al., Anal Biochem 332, 261-273 (2004). Assuming one-site competitive binding model, the equation used to calculate Ki's from IC50 values recovered from fitting data using Prism:
[formula] where [I50] is the concentration of free inhibitor at 50% inhibition, [L50], the concentration of free labeled ligand at 50% inhibition, and [P0], concentration of free protein at 0% inhibition. Note that Kd for each protein-probe pair is the limit of resolvable Ki in a competition assay.

SMILES | IC50 (BRD4_2) | IC50 [1]
CC1=C(Nc2cccc(N)c2Cl)CCCC1=O [Example 02-11, 3-((3-amino-2-chlorophenyl)amino)-2-methylcyclohex-2-enone] | > 10 µM | 1 to 10 µM
CC1=C(Nc2ccc(Cl)cc2C(=O)O)CCC1=O [Examples 02-5] | > 10 µM | > 10 µM
CC1=C(Nc2ccc(C(=O)NCc3ccccc3)cc2)CCC1=O [Example 03-18, N-benzyl-4-((2-methyl-3-oxocyclopent-1-en-1-yl)amino)benzamide] | 1 to 10 µM | 1 to 10 µM
CC1=C(Nc2ccc(N)cc2Cl)CCC1=O [Example 02-14, 3-((4-amino-2-chlorophenyl)amino)-2-methylcyclopent-2-enone] | 1 to 10 µM | 1 to 10 µM
CC1=C(Nc2cccc(S(N)(=O)=O)c2)CCC1=O [Example 01-45, 3((2-methyl-3-oxocyclopent-1-en-1-yl)amino)benzenesulfonamide] | 1 to 10 µM | 1 to 10 µM
CC1=C(N[C@H]2CC[C@@H](C(=O)O)CC2)CCC1=O [Example 01-34, cis-(1S,4S)-4-((2-methyl-3-oxocyclopent-1-en-1-yl)amino)cyclohexanecarboxylic acid] | > 10 µM | > 10 µM
CC1=C(Nc2ccc(C(=O)Nc3cccc(C)c3)cc2)CCC1=O [Example 03-9] | 1 to 10 µM | 1 to 10 µM
CC1=C(Nc2cc(S(N)(=O)=O)ccc2Cl)CCC1=O [Example 01-46, 4-chloro-3-((2-methyl-3-oxocyclopent-1-en-1-yl)amino)benzene-sulfonamide] | 1 to 10 µM | 1 to 10 µM
COc1ccc(NC(=O)c2ccc(NC3=C(C)C(=O)CC3)cc2)cc1 [Example 03-6] | 1 to 10 µM | 1 to 10 µM
CC1=C(Nc2ccc(S(N)(=O)=O)cc2)CCC1=O [Example 01-6] | > 10 µM | > 10 µM
CC1=C(Nc2ccc(C#N)cc2)CCC1=O [Example 01-7] | > 10 µM | > 10 µM
CC1=C(Nc2ccc(C(=O)Nc3cccc4ccccc34)cc2)CCC1=O [Example 03-16, 4-((2-methyl-3-oxocyclopent-1-en-1-yl)amino)-N-(naphthalen-1-yl)benzamide] | 1 to 10 µM | 1 to 10 µM
CC1=C(Nc2ccc(C(=O)Nc3ccccc3)cc2)CCC1=O [Example 03-1] | 1 to 10 µM | 1 to 10 µM
COC(=O)c1ccc(NC2=C(C)C(=O)CC2)c(Cl)c1 [Example 01-11, methyl 3-chloro-4((2-methyl-3-oxocyclopent-1-en-1-yl)amino)benzoate] | 1 to 10 µM | 1 to 10 µM

Further lines, results first:

IC50 (BRD4_2) | IC50 [1] | SMILES
> 10 µM | > 10 µM | CC1=C(Nc2ccc(C(=O)Nc3cccc(F)c3)c(Cl)c2)CCC1=O [Example 04-52, 2-chloro-N-(3-fluorophenyl)-4-((2-methyl-3-oxocyclopent-1-en-1-yl)amino)-benzamide]
1 to 10 µM | 1 to 10 µM | CNC(=O)c1ccc(NC2=C(C)C(=O)CC2)c(OC)c1 [Example 04-53, 3-methoxy-N-methyl-4-((2-methyl-3-oxocyclopent-1-en-1-yl)amino)benzamide]
< 1 µM | < 1 µM | CC1=C(Nc2cc(NS(=O)(=O)c3ccccc3Cl)ccc2Cl)CCC1=O [Example 05-56, N-(4-chloro-3-((2-methyl-3-oxocyclopent-1-en-1-yl)amino)-phenyl)-2-chlorobenzenesulfonamide]
> 10 µM | < 1 µM | COc1cc(NC2=C(C)C(=O)CC2)ccc1C(=O)Nc1cccc2ccccc12 [Example 04-67, 2-methoxy-4-((2-methyl-3-oxocyclopent-1-en-1-yl)amino)-N-(naphthalen-1-yl)benzamide]
1 to 10 µM | 1 to 10 µM | COc1ccc(NC(=O)c2ccc(NC3=C(C)C(=O)CC3)cc2Cl)cc1 [Example 04-48, 2-chloro-N-(4-methoxyphenyl)-4-((2-methyl-3-oxocyclopent-1-en-1-yl)amino)-benzamide]
1 to 10 µM | 1 to 10 µM | CC1=C(Nc2ccc(C(=O)Nc3ccccc3)cc2C)CCC1=O [Example 04-80, 3-methyl-4-((2-methyl-3-oxocyclopent-1-en-1-yl)amino)-N-phenylbenzamide]
1 to 10 µM | 1 to 10 µM | COc1ccc(NC(=O)c2ccc(NC3=C(C)C(=O)CC3)c(OC)c2)cc1 [Example 04-59, 3-methoxy-N-(4-methoxyphenyl)-4-((2-methyl-3-oxocyclopent-1-en-1-yl)amino)-benzamide]
> 10 µM | > 10 µM | CC1=C(Nc2ccc(C(=O)NC3CCCCC3)c(Cl)c2)CCC1=O [Example 04-43, 2-chloro-N-cyclohexyl-4-((2-methyl-3-oxocyclopent-1-en-1-yl)amino)benzamide]
1 to 10 µM | < 1 µM | CC1=C(Nc2cccc(-c3cn(Cc4ccccc4C)nn3)c2)CCC1=O [Example 06-10, 2-methyl-3-((3-(1-(2-methylbenzyl)-1H-1,2,3-triazol-4-yl)phenyl)amino)cyclopent-2-enone]
1 to 10 µM | 1 to 10 µM | CC1=C(Nc2ccc(C(=O)Nc3ccc(C)cc3)cc2Cl)CCC1=O [Example 04-22, 3-chloro-4-((2-methyl-3-oxocyclopent-1-en-1-yl)amino)-N-(p-tolyl)benzamide]
> 10 µM | 1 to 10 µM | COc1ccccc1NC(=O)c1ccc(NC2=C(C)C(=O)CC2)cc1Cl [Example 04-46, 2-chloro-N-(2-methoxyphenyl)-4-((2-methyl-3-oxocyclopent-1-en-1-yl)amino)benzamide]
> 10 µM | < 1 µM | COc1ccccc1NC(=O)c1ccc(NC2=C(C)C(=O)CC2)cc1OC [Example 04-69, 2-methoxy-N-(2-methoxyphenyl)-4-((2-methyl-3-oxocyclopent-1-en-1-yl)amino)-benzamide]
1 to 10 µM | 1 to 10 µM | CC1=C(Nc2ccc(C(=O)Nc3ccc(C)cc3)cc2C)CCC1=O [Example 04-86, 3-methyl-4-((2-methyl-3-oxocyclopent-1-en-1-yl)amino)-N-(p-tolyl)benzamide]
> 10 µM | > 10 µM | Cc1ccccc1NC(=O)c1ccc(Cl)c(NC2=C(C#N)C(=O)CCC2)c1 [Example 05-34, 4-chloro-3-((2-cyano-3-oxocyclohex-1-en-1-yl)amino)-N-(o-tolyl)benzamide]
1 to 10 µM | < 1 µM | CC1=C(Nc2ccc(C(=O)NC3CCCCC3)cc2Cl)CCC1=O [Example 04-14, 3-chloro-N-cyclohexyl-4-((2-methyl-3-oxocyclopent-1-en-1-yl)amino)benzamide]
> 10 µM | > 10 µM | CC1=C(Nc2ccc(C(=O)Nc3cccc(C)c3)c(Cl)c2)CCC1=O [Example 04-50, 2-chloro-4-((2-methyl-3-oxocyclopent-1-en-1-yl)amino)-N-(m-tolyl)benzamide]
> 10 µM | 1 to 10 µM | COC(=O)c1cccc(NC(=O)c2ccc(Cl)c(NC3=C(C)C(=O)CCC3)c2)c1C [Example 04-92, methyl 3-(4-chloro-3-((2-methyl-3-oxocyclohex-1-en-1-yl)amino)benzamido)-2-methylbenzoate]
1 to 10 µM | 1 to 10 µM | COc1ccc(NC(=O)c2cccc(NC3=C(C)C(=O)CC3)c2)cc1 [Example 04-4]
1 to 10 µM | < 1 µM | COc1cc(NC2=C(C)C(=O)CC2)ccc1C(=O)Nc1ccccc1C [Example 04-72, 2-methoxy-4-((2-methyl-3-oxocyclopent-1-en-1-yl)amino)-N-(o-tolyl)benzamide]
1 to 10 µM | < 1 µM | CC1=C(Nc2cccc(NS(=O)(=O)C3CCCCC3)c2Cl)CCCC1=O [Example 05-71, N-(2-chloro-3-((2-methyl-3-oxocyclohex-1-en-1-yl)amino)phenyl)-cyclohexanesulfonamide]
1 to 10 µM | 1 to 10 µM | COc1cccc(NC(=O)c2ccc(NC3=C(C)C(=O)CC3)c(OC)c2)c1 [Example 04-58, 3-methoxy-N-(3-methoxyphenyl)-4-((2-methyl-3-oxocyclopent-1-en-1-yl)amino)-benzamide]
1 to 10 µM | 1 to 10 µM | COc1cccc(NC(=O)c2ccc(NC3=C(C)C(=O)CC3)c(C)c2)c1 [Example 04-82, N-(3-methoxyphenyl)-3-methyl-4-((2-methyl-3-oxocyclopent-1-en-1-yl)amino)-benzamide]
1 to 10 µM | < 1 µM | COc1ccc(NC(=O)c2ccc(NC3=C(C)C(=O)CC3)c(Br)c2)cc1 [Example 05-18, 3-bromo-N-(4-methoxyphenyl)-4-((2-methyl-3-oxocyclopent-1-en-1-yl)amino)benzamide]
